Columns and labels:
[1] = biological target: ABL1 (Homo sapiens, UniProt P00519); assay: Kinase selectivity panel: ABL1; format: biochemical
[2] = biological target: ALK4 (Homo sapiens, UniProt P36896); assay: Kinase selectivity panel: ALK4; format: biochemical
[3] = biological target: AKT1 (Homo sapiens, UniProt P31749); assay: Kinase selectivity panel: AKT1; format: biochemical
[4] = biological target: AMPK A1/B1/G1 (Homo sapiens, UniProt Q13131); assay: Kinase selectivity panel: AMPK A1/B1/G1; format: biochemical
[5] = biological target: T1, AURKA (Homo sapiens, UniProt O14965); assay: Kinase selectivity panel: AURKA; format: biochemical
T1 sequence (O14965 1-403): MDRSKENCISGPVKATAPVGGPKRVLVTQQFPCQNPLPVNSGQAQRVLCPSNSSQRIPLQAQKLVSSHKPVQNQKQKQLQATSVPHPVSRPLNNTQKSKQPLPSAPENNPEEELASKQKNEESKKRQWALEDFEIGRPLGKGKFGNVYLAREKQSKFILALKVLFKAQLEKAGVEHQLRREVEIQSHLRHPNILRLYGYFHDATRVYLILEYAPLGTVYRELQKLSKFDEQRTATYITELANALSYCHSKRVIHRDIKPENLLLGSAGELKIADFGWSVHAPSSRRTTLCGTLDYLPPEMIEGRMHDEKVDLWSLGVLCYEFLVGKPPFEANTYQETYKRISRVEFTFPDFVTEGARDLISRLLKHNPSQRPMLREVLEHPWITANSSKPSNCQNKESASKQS

[6] = biological target: BRAF (Homo sapiens, UniProt P15056); assay: Kinase selectivity panel: BRAF; format: biochemical
[7] = biological target: BTK (Homo sapiens, UniProt Q06187); assay: Kinase selectivity panel: BTK; format: biochemical
[8] = biological target: CK2 alpha 1 (Homo sapiens, UniProt P68400); assay: Kinase selectivity panel: CK2 alpha 1; format: biochemical
[9] = biological target: DYRK3 (Homo sapiens, UniProt O43781); assay: Kinase selectivity panel: DYRK3; format: biochemical
[10] = biological target: EGFR (Homo sapiens, UniProt P00533); assay: Kinase selectivity panel: EGFR; format: biochemical
[11] = biological target: EPHA2 (Homo sapiens, UniProt P29317); assay: Kinase selectivity panel: EPHA2; format: biochemical
[12] = biological target: KDR (Homo sapiens, UniProt P35968); assay: Kinase selectivity panel: KDR; format: biochemical
[13] = biological target: KIT (Homo sapiens, UniProt P10721); assay: Kinase selectivity panel: KIT; format: biochemical
[14] = biological target: MARK2 (Homo sapiens, UniProt Q7KZI7); assay: Kinase selectivity panel: MARK2; format: biochemical
[15] = biological target: TAK1-TAB1 (Homo sapiens, UniProt O43318); assay: Kinase selectivity panel: TAK1-TAB1; format: biochemical
[16] = biological target: P38 alpha (Homo sapiens, UniProt Q16539); assay: Kinase selectivity panel: P38 alpha; format: biochemical
[17] = biological target: PHKG2 (Homo sapiens, UniProt P15735); assay: Kinase selectivity panel: PHKG2; format: biochemical
[18] = biological target: PLK1 (Homo sapiens, UniProt P53350); assay: Kinase selectivity panel: PLK1; format: biochemical
[19] = biological target: ROCK1 (Homo sapiens, UniProt Q13464); assay: Kinase selectivity panel: ROCK1; format: biochemical
[20] = biological target: SYK (Homo sapiens, UniProt P43405); assay: Kinase selectivity panel: SYK; format: biochemical
[21] = biological target: Tie2 (Homo sapiens, UniProt Q02763); assay: Kinase selectivity panel: Tie2; format: biochemical
[22] = biological target: G2019S LRRK2 (Homo sapiens, UniProt Q5S007, G2019S); assay: DiscoveRx KINOMEscan binding constant (Kd); set-up: purchased DiscoveRx (KINOMEscan service); host or cells: E. coli BL21-derived host (T7 phage) or HEK-293; conditions: numeric value
Procedure: Compounds of formulas (II), (I), (I-A), (I-B), (I-C), (I-D), (I-D-1), (I-D-2), (I-E), (I-F), (I-G), (I-H), (I-I), (I-I-1), (I-I-2), (I-J), (I-K), (I-L), (I-M), (I-N), (I-Z-1), (I-Z-2), (I-Z-2-a), (I-Z-2-b), (I-Z-2-c), (I-Z-2-d), (I-Z-3-a), (I-Z-3-b), (I-Z-3-c), or (I-Z-3-d) were tested using DiscoveRx's KINOMEscan™ technology to measure a binding constant (Kd) to wild type and G2019S LRRK2. Kinase-tagged T7 phage strains were prepared in an E. coli host derived from the BL21 strain. E. coli were grown to log-phase and infected with T7 phage and incubated with shaking at 32° C. until lysis. The lysates were centrifuged and filtered to remove cell debris. The remaining kinases were produced in HEK-293 cells and subsequently tagged with DNA for qPCR detection. Streptavidin-coated magnetic beads were treated with biotinylated small molecule ligands for 30 minutes at room temperature to generate affinity resins for kinase assays. The liganded beads were blocked with excess biotin and washed with blocking buffer (SeaBlock (Pierce), 1% BSA, 0.05% Tween 20, 1 mM DTT) to remove unbound ligand and to reduce non-specific binding. Binding reactions were assembled by combining kinases, liganded affinity beads, and test compounds in 1× binding buffer (20% SeaBlock, 0.17×PBS, 0.05% Tween 20, 6 mM DTT). All reactions were performed in polystyrene 96-well plates in a final volume of 0.135 ml. The assay plates were incubated at room temperature with shaking for 1 hour and the affinity beads were washed with wash buffer (lx PBS, 0.05% Tween 20). The beads were then re-suspended in elution buffer (lx PBS, 0.05% Tween 20, 0.5 μM non-biotinylated affinity ligand) and incubated at room temperature with shaking for 30 minutes. The kinase concentration in the eluates was measured by qPCR. An 11-point 3-fold serial dilution of each test compound was prepared in 100% DMSO at 100× final test concentration and subsequently diluted to 1× in the assay (final DMSO concentration=[…]). Most Kds were determined using a compound top concentration=30,000 nM.

ABL1, sequence (P00519 whole entry, species assumed): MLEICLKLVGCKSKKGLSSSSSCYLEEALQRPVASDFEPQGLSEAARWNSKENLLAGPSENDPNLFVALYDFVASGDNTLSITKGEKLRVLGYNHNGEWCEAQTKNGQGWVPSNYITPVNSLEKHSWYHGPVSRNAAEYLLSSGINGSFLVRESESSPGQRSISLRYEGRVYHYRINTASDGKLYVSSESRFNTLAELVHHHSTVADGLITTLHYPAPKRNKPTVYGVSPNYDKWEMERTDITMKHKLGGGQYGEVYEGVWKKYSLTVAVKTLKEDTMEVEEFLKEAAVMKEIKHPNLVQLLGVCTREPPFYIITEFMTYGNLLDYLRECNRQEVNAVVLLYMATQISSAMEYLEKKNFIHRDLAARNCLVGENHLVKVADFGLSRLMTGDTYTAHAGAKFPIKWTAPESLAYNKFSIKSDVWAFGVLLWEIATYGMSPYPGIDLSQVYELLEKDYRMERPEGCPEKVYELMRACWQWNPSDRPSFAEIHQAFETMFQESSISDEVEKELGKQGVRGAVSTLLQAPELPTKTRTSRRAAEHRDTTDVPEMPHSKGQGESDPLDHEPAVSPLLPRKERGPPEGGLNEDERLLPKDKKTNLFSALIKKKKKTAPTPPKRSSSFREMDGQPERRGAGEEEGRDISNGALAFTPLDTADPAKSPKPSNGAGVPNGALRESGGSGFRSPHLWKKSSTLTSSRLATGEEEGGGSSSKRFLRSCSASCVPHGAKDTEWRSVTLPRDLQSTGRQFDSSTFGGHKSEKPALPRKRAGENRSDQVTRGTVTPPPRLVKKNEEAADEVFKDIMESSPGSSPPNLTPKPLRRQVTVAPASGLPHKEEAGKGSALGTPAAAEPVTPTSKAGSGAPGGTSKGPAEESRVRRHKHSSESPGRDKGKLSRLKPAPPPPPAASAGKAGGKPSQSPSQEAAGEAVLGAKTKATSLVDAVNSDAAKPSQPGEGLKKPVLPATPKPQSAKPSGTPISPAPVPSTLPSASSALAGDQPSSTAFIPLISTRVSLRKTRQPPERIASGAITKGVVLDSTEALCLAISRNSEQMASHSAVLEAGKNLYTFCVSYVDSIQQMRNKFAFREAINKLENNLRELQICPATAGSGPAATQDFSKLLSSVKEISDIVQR
MARK2, sequence (Q7KZI7 whole entry, species assumed): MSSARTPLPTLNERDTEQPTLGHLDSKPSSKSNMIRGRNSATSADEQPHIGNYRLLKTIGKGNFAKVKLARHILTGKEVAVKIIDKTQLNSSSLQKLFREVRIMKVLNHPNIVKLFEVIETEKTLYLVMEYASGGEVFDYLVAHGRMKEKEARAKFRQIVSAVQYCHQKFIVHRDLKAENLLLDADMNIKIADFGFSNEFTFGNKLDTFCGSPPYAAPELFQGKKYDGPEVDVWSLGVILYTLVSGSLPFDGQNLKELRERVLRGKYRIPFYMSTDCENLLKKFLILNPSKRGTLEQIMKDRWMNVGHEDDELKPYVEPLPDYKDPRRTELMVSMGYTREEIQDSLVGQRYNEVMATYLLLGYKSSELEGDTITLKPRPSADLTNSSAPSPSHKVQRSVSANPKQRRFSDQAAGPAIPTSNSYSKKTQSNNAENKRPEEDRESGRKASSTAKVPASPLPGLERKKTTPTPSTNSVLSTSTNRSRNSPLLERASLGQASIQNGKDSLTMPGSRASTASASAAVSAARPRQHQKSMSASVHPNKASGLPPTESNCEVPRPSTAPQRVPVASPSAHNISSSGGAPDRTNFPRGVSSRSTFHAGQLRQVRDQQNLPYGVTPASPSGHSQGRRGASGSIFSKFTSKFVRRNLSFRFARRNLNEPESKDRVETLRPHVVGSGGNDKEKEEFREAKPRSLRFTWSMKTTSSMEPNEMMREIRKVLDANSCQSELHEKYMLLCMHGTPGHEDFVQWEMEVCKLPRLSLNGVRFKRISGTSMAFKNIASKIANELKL
TAK1-TAB1, sequence (O43318 1-303 limits assumed): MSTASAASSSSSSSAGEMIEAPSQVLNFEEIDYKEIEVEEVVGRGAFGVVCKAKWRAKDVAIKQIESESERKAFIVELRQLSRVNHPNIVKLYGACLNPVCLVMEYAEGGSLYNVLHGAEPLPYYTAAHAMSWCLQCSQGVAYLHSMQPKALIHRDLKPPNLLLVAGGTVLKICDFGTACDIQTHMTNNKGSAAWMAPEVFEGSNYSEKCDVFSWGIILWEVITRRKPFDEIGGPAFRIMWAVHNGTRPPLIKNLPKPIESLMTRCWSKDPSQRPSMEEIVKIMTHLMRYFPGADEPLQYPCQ
TAK1-TAB1, sequence (Q15750 437-504 partner limits assumed): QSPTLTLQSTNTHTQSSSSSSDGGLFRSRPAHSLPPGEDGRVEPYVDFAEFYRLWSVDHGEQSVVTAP
EGFR, sequence (P00533 25-1210, species assumed): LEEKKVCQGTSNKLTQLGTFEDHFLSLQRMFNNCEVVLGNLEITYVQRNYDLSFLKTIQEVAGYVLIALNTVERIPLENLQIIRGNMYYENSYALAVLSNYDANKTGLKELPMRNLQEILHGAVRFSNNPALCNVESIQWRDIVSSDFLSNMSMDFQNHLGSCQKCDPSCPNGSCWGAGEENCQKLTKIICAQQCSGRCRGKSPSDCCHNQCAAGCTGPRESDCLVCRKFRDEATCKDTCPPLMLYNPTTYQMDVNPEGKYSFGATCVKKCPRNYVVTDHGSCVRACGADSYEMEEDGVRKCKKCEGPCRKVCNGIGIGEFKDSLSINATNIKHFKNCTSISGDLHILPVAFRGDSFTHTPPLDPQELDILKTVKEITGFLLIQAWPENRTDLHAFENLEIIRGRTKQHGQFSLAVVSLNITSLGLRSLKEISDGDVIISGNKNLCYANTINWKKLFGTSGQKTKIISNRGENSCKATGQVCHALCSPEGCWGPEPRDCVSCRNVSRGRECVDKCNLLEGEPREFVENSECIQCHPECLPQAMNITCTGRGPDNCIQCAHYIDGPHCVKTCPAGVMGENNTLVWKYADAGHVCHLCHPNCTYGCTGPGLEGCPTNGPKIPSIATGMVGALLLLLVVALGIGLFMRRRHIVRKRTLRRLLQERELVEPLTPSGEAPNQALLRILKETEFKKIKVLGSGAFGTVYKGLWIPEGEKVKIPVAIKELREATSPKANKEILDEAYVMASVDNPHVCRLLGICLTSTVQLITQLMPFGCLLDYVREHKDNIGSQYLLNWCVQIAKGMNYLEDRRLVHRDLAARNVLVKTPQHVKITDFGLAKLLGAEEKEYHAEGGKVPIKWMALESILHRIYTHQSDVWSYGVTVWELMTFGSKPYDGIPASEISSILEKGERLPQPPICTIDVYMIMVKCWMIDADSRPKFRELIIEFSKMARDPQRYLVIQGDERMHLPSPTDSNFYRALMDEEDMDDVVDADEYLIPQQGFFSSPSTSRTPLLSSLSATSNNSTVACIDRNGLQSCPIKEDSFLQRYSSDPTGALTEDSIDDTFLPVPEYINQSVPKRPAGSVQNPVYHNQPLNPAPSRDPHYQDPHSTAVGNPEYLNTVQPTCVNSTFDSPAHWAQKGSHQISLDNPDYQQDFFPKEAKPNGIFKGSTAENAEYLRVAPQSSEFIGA
KDR, sequence (P35968 20-1356, species assumed): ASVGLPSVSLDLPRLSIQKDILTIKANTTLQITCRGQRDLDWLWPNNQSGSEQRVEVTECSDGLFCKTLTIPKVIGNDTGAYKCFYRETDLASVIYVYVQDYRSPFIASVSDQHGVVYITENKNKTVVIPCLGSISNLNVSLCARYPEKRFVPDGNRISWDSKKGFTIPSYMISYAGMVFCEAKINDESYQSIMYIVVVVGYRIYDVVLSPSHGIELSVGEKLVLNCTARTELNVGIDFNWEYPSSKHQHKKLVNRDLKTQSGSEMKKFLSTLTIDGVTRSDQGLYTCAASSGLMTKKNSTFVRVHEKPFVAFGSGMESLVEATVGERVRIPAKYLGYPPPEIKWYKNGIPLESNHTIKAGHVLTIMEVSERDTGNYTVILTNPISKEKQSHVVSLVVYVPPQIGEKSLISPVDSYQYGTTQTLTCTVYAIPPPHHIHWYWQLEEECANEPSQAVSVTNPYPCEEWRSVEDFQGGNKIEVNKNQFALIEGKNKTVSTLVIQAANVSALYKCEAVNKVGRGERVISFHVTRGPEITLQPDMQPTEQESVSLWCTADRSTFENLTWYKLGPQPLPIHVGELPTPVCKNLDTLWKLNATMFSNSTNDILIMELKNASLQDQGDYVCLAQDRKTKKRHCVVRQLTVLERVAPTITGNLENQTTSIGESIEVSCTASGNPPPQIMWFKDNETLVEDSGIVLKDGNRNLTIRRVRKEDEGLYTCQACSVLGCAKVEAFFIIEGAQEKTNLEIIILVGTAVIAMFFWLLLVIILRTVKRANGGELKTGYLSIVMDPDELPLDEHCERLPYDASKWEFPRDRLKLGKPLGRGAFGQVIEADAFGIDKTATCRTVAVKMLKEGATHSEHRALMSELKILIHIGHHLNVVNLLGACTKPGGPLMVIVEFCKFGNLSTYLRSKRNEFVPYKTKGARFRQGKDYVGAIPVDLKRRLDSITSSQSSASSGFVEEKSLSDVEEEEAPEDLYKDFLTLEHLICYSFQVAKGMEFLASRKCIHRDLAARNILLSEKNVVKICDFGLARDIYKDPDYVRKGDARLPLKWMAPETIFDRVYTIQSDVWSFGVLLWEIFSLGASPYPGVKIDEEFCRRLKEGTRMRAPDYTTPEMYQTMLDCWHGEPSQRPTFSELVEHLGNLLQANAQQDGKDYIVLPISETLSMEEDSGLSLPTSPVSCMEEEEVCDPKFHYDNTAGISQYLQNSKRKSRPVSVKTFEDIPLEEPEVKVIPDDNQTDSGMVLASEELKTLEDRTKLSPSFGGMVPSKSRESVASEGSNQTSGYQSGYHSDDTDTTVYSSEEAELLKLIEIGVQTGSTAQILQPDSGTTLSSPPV

IC50 [1]: > 10 µM | inhibition at 0.1 µM ([1]; @0.1 uM): 5% | inhibition at 0.1 µM [2]: -3% | inhibition at 0.1 µM [3]: -2% | inhibition at 0.1 µM [4]: -1% | IC50 [5]: > 10 µM | inhibition at 0.1 µM ([5]; @0.1 uM): -1% | inhibition at 0.1 µM [6]: 18% | inhibition at 0.1 µM [7]: 4% | inhibition at 0.1 µM [8]: 6% | inhibition at 0.1 µM [9]: 2% | inhibition at 0.1 µM [10]: -3% | inhibition at 0.1 µM [11]: 2% | inhibition at 0.1 µM [12]: 1% | inhibition at 0.1 µM [13]: 4% | IC50 [14]: 7.94 µM | inhibition at 0.1 µM ([14]; @0.1 uM): 5% | inhibition at 0.1 µM [15]: -3% | inhibition at 0.1 µM [16]: 12% | inhibition at 0.1 µM [17]: 3% | inhibition at 0.1 µM [18]: 12% | inhibition at 0.1 µM [19]: 1% | inhibition at 0.1 µM [20]: 8% | inhibition at 0.1 µM [21]: -2% | Kd [22]: 0.095 µM
SMILES: COc1ccc2c(c1)/C(=C/c1cnc(C3CCOCC3)[nH]1)C(=O)N2 [Compound 18, (3Z)-5-methoxy-3-[(2-tetrahydropyran-4-yl-1H-imidazol-5-yl)methylene]indolin-2-one]
